# Where “and” joins values, the source holds several entries; their conditions need not be identical. Equal entries are not always repeated.
# Experiments:
# Format in all cases: in vivo, New Zealand albino rabbits
# Rabbit Corneas [1] = assay: Tear break-up time after PRK; conditions: for Tear Break-Up Time: mean ± Standard Error
# Protocol: (§1) Twenty-one New Zealand albino rabbits weighing 1.5 to 2.0 kg were obtained from a commercial supplier and were treated in accordance with the guidelines of the Association for Research in Vision and Ophthalmology. Each rabbit received intramuscular xylazine (10 mg/kg) and ketamine hydrochloride (50 mg/kg) anesthesia. Tetracaine eye drops were used as topical anesthesia. Tear secretion tests (e.g., tear break-up time, Schirmer's test, and rose bengal staining) were performed preoperatively under general anesthesia. Each rabbit received a unilateral PRK laser treatment. The corneal epithelium was removed with an epithelial scrubber (Katena Inc, Denville, N.J.). An excimer laser ablation to correct −5 diopters of myopia using a 6.5 mm optical zone (Lasersight Technologies, Inc., Winter Park, Fla.) was performed. The eye was washed with balanced salt solution. Lubricating eye drops and an ophthalmic solution of 0.3% ofloxacin eye drops (Allergan Inc, Irvine, Calif.) were used postoperatively. Unless otherwise indicated, all chemicals were purchased from Sigmna Chemical Co. (St. Louis, Mo.).
# (§2) Twenty-one New Zealand albino rabbits were divided in 4 groups. The three experimental groups consisted of 6 rabbits each. The control group had only 3 rabbits. The rabbits within each of the four groups were randomized to receive twice-weekly topical treatments through 72-hour collagen shields (Oasis Medical Inc.; Glendora, Calif.) for a total of eight weeks. The four treatments were as follows: (1) 0.1 μg NGF (25 μl) plus 100 μl phosphate buffered saline (PBS); (2) 100 μg DHA (100 μl) plus 25 μl of PBS; (3) 0.1 μg NGF (25 μl) plus 100 μg DHA (100 μl); and (4) 125 μl of PBS with albumin (control). In all animals, a tarsorrhaphy was performed on the treated eyes, and the eyes were opened only twice a week to introduce a new collagen shield.
# (§3) Statistical analyses were performed using the Statistical Analysis System (SAS) software version 9.0 (SAS Institute, Cary, N.C.). The tear secretion tests (Schirmer, tear break-up time and rose bengal staining) and density of nerve areas were analyzed using a repeated measures design in the analysis of variance (ANOVA). The differences in the tear secretion tests between the four treatment groups were analyzed at each time point. The effect of the various treatments on tubulin III-, CGRP- and SP-positive epithelial and sub-basal nerve areas was evaluated with a multivariate test. Comparisons among the four treatments groups were made using adjusted least square means with alpha levels corrected by a simulation method.
# Tear secretion tests (tear break-up time, Schirmer's test and rose bengal staining) were performed every 15 days over the 8-week period following PRK. All the tests were performed with general anesthesia. […]
# [2] = tested on: sub-basal and epithelial nerve bundles; assay: Class III β-tubulin staining of sub-basal and epithelial nerve bundle area after PRK; conditions: 8 weeks after PRK
# Protocol: as §2, with “In all animals, a tarsorrhaphy was performed on the treated eyes, and the eyes were opened only twice a week to introduce a new collagen shield.” left out
# as §3, with “Comparisons among the four treatments groups were made using adjusted least square means with alpha levels corrected by a simulation method.” left out
# (§4) Rabbits were humanely euthanized at 8 weeks post-PRK surgery using an intravenous overdose of pentobarbital. […] Each section was evaluated with hematoxylin and eosin (H&E) stain and by immuno-histochemical analysis. […]
# corneal epithelium = assay: Ki-67 immunostaining of proliferating cells in corneal epithelium after PRK; conditions: 8 weeks after PRK
# Protocol: as §2, with “In all animals, a tarsorrhaphy was performed on the treated eyes, and the eyes were opened only twice a week to introduce a new collagen shield.” left out
# as §4
# Photographs of the tissue sections were acquired using MetaVue version 5.0r3 (Universal Imaging Corp.; Downingtown, Pa.) and saved as a TIFF file. (Data not shown) The tubulin III-, CGRP- and SP-positive tissue nerve areas and the percentage of Ki-67 cells were calculated with respect to the total area using the image analysis program Image Pro Plus 4.5 (Media Cybernetics Inc., Silver Spring, Md.). Sub-basal and epithelial nerve areas were measured in all groups eight weeks after PRK using anti-class III β tubulin, CGRP and SP monoclonal antibodies. […]
# Rabbit Corneas [3] = assay: Schirmer's test (tear secretion) after PRK; conditions: mean ± Standard Error
# Protocol: as §1
# Twenty-one New Zealand albino rabbits were divided in 4 groups. The three experimental groups consisted of 6 rabbits each. The control group had only 3 rabbits. The rabbits within each of the four groups were randomized to receive twice-weekly topical treatments through 72-hour collagen shields (Oasis Medical Inc.; Glendora, Calif.) for a total of eight weeks. […]
# as §3, with “Comparisons among the four treatments groups were made using adjusted least square means with alpha levels corrected by a simulation method.” left out
# Rabbit Corneas [4] = assay: Rose bengal staining after PRK; conditions: first postoperative month (30 days after PRK)
# Protocol: as §1, with “The eye was washed with balanced salt solution. Lubricating eye drops and an ophthalmic solution of 0.3% ofloxacin eye drops (Allergan Inc, Irvine, Calif.) were used postoperatively. Unless otherwise indicated, all chemicals were purchased from Sigmna Chemical Co. (St. Louis, Mo.).” left out
# as §3, with “Comparisons among the four treatments groups were made using adjusted least square means with alpha levels corrected by a simulation method.” left out
smiles,measurement,setting,value
"CC/C=C\C/C=C\C/C=C\C/C=C\C/C=C\C/C=C\CCC(=O)O [DHA, docosahexaenoic acid]",tear break-up time measurement,Rabbit Corneas [1]; 1 week postoperative,14.5 s
same,Tear Break-Up Time,Rabbit Corneas [1]; 15 Days after PRK,14.5 ± 6.2 s
same,Tear Break-Up Time,Rabbit Corneas [1]; 30 Days (1 month) after PRK,14.0 s and 14.0 ± 4.8 s
same,Tear Break-Up Time,Rabbit Corneas [1]; 45 Days after PRK,14.0 ± 4.0 s
same,average ratio of sub-basal tubulin-positive nerve bundle area to total area,[2]; FIG. 2A,~1.2
same,ratio of the tubulin positive nerve bundle area to the total epithelial area,"[2]; epithelial layer, FIG. 2B",no significant effect
same,percentage of Ki-67 positive epithelial cells,corneal epithelium,6%
same,Schirmer's Test,Rabbit Corneas [3]; 15 Days after PRK,10 mm and 10.0 ± 3.7 mm
same,Schirmer's Test,Rabbit Corneas [3]; 30 Days (1 month) after PRK,11.5 mm and 11.5 ± 3.4 mm
same,Schirmer's Test,Rabbit Corneas [3]; 45 Days after PRK,12.5 ± 2.3 mm
same,eyes with positive rose bengal staining,Rabbit Corneas [4],33%

# — US20070218105A1, “Topical Treatment with NGF and DHA in Damaged Corneas” (priority 2004, published 2007)
